From patent US20170204126A1, “MOLYBDENUM- AND TUNGSTEN-CONTAINING PRECURSORS FOR THIN FILM DEPOSITION” (L'Air Liquide, Société Anonyme pour l'Etude et …, priority 2014, published 2017)

Columns and labels:
[1] = Solubility of the compound in common solvents; conditions: for Solubility in alkanes and toluene: at room temperature
Procedure: Measurement Conditions: • Sample weight: 26.00 mg • Atmosphere: Nitrogen, 1 atmospheric pressure • Heating rate: 10° C.·min^−1 • Solubility of the compound in common solvents
Measurement Conditions: • Sample weight: 24.57 mg • Atmosphere: Nitrogen, 1 atmospheric pressure • Heating rate: 10° C.·min^−1 • Solubility of the compound in common solvents
Measurement Conditions: • Sample weight: 21.19 mg • Atmosphere: Nitrogen, 1 atmospheric pressure • Heating rate: 10° C.·min^−1 • Solubility of the compound in common solvents
Measurement Conditions: • Sample weight: 23.09 mg • Atmosphere: Nitrogen, 1 atmospheric pressure • Heating rate: 10° C.·min^−1 • Solubility of the compound in common solvents
Measurement Conditions: • Sample weight: 19.79 mg • Atmosphere: Nitrogen, 1 atmospheric pressure • Heating rate: 10° C.·min^−1 • Solubility of the compound in common solvents
Measurement Conditions: • Sample weight: 27.43 mg • Atmosphere: Nitrogen, 1 atmospheric pressure • Heating rate: 10° C.·min^−1 • Solubility of the compound in common solvents

[2] = Thermal Stability Test (storage at 50° C.); assay type: physicochemical
Procedure: The product was stored at 50° C. for 14 and 44 days. The W(OsBu)6 content after 14 days was 1.1 atomic %. The W(OsBu)6 content after 44 days was 1.2 atomic %.

Molecule: CC(C)C[O][W](=[O])([O]CC(C)C)([O]CC(C)C)[O]CC(C)C [W(═O)(OiBu)4, W(═O)(OCH2CH(CH3)2)4]
- Solubility in alkanes and in toluene ([1]; toluene up to 80° C.): very low solubility

Molecule: CC(C)C(C)[O][W](=[O])([O]C(C)C(C)C)([O]C(C)C(C)C)[O]C(C)C(C)C (stereo not shown) [W(═O)(OCH(CH3)(CH(CH3)2))4]
- Vapor pressure (Vapor pressure; at 147° C.): 1 Torr
- Solubility in common organic solvents ([1]; hexane, acetone, chloroform, and/or toluene): miscible

Molecule: CC(C)[O][W](=[O])([O]C(C)C)([O]C(C)C)[O]C(C)C [W(═O)(OiPr)4, W(═O)(OCH(CH3)2)4]
- Vapor pressure (Vapor pressure; at 103° C.): 1 Torr
- Solubility in alkanes ([1]; alkanes): very low solubility
- Solubility in toluene ([1]; toluene at 60° C.): soluble

Molecule: tungsten oxo sec-butoxide [W(═O)(OsBu)4]
- W(OsBu)6 content after storage ([2]; stored at 50° C. for 14 days): 1.1 atomic %
- W(OsBu)6 content after storage ([2]; stored at 50° C. for 44 days): 1.2 atomic %

Molecule: CCC[O][W](=[O])([O]CCC)([O]CCC)[O]CCC [W(═O)(OnPr)4]
- Solubility in alkanes and toluene [1]: very low solubility

Molecule: CCCC[O][W](=[O])([O]CCCC)([O]CCCC)[O]CCCC [W(═O)(OnBu)4]
- Solubility in alkanes and toluene [1]: very low solubility
